Values joined by “and” are separate entries in the source; they are usually repeats but may differ in a detail not shown here. Identical values can stand only once. Like-named read-outs stand apart in the source and are kept apart here.
What was measured:
HL-60-RV cells = assay: cells; assay type: cell-based, human; settings: for IC50: read-out: IC50, decrease of HL-60-RV cell viability
Excerpt: (§1) The MDR HL-60-RV and HL-60-R8 cells were developed in Melvin S. Center's laboratory (Kansas State University) and similarly maintained in RPMI 1640 medium in the absence of drugs (Marsh W, et al, Cancer Res 46: 4053-4057, 1986; McGrath T et al, and Center M S: Biochem Biophys Res Commun 145: 1171-1176, 1987; Marsh W and Center M S: Cancer Res 47: 5080-5086, 1987; McGrath T, et al, Biochem Pharmacol 38: 3611-3619, 1989; Marquardt D, et al, Cancer Res 50: 1426-1430, 1990; Marquardt D and Center M S: J Natl Cancer Inst 83: 1089-1109, 1991; Krishnamachary N and Center M S; Cancer Res 53: 3658-3661, 1993). Every 4 weeks, these HL-60-RV and HL-60-R8 sublines were exposed to 41 nM DAU for 48 h to stabilize their MDR phenotype. This concentration of DAU, which is not cytotoxic to MDR HL-60 sublines, was removed from the culture medium at least 48 h before experimentation. […] RFs were determined by dividing the IC50 of the MDR cells by that of the sensitive WT parent cell line.

L1210 cells = assay: Protein synthesis (3H-leucine incorporation) in L1210 cells; assay type: cell-based, murine
Method: FIG. 17. Comparison of the concentration-dependent inhibitions of protein synthesis by the TT analog TT2 (●) and DAU (∘) in L1210 cells in vitro. […] Protein synthesis in vehicle-treated control cells was 13,812±1,070 cpm (100±8%; striped area). The blank value (2,436±298 cpm) for cells incubated and pulse-labeled at 2° C. with 2.5 μCi of ^3H-leucine has been substracted from the results.
Except when otherwise specified, the cells were incubated at 37° C. for 90 min in the presence or absence of drugs and then pulse-labeled for an additional 30 min with 1 μCi of [methyl-^3H]thymidine (50 Ci/mmol; Amersham Corp., Arlington Heights, Ill.) to estimate the rate of DNA synthesis. […] After drying the filters, the radioactivity bound to the acid-precipitable material was determined by liquid scintillation counting (LSC) in 10 ml of Bio-Safe NA (Researeh Products International Corp., Mount Prospect, Ill.).

HL-60-R8 cells = assay: DNA cleavage in HL-60-R8 cells; assay type: cell-based, human; settings: HL-60-R8, 24 h
Method: (§2) FIG. 23. Comparison of the concentration-dependent inductions of DNA cleavage by DAU (open symbols in A) and TT2 (closed symbols in B) at 24 h in HL-60-S (circles), HL-60-RV (squares) and HL-60-R8 (triangles) cells containing ^3H-prelabeled DNA in vitro. Results are expressed as [cpm in supernatant/cpm in supernatant+pellet]×100 at 24 h. For untreated controls (14.7±1.7% DNA fragmentation, striped areas), the supernatant (DNA fragments) is 12,815±1,358 cpm and the pellet (intact DNA) is 74,406±9,078 cpm.
as §1, with “phenotype.” for “phenotype. This concentration of DAU, which is not cytotoxic to MDR HL-60 sublines, was removed from the culture medium at least 48 h before experimentation.”, “line. […]” for “line.”

HL-60-S cells = assay: DNA cleavage in HL-60-S cells; assay type: cell-based, human; settings: 24 h
Method: as §2, §1
Drug-induced DNA cleavage was determined by intact chromatin precipitation, using L1210, HL-60-S, HL-60-RV and HL-60-R8 cells which were prelabeled with 1 μCi of ^3H-thymidine for 2 h at 37° C., washed with 3×1 ml of ice-cold PBS, collected by centrifugation, and resuspended in fresh FCS-containing RPMI 1640 medium at a density of about 1×10^6 cells/0.5 ml for L1210 and 0.5×10^6 cells/0.5 ml for HL cells. Except when otherwise specified, such cells containing prelabeled DNA were then exposed for 24 h to TTs and drugs known to induce DNA fragmentation. After centrifugation at 200×g for 10 min to discard the drugs and wash the cells, the intact cell pellets were lysed for 30 min in 0.5 ml of HLB, centrifuged at 12,000×g for 30 min to collect the supernatants, and resuspended in 0.5 ml of HLB. After another similar centrifugation, the radioactivities in the pooled supernatants (detergent-soluble low molecular weight DNA fragments) and the pellet (intact chromatin DNA) were determined by LSC: % DNA fragmentation=[cpm in supernatant/cpm in supernatant+pellet]×100. Before being counted in 6 ml of Bio-Safe NA, the intact pelleted chromatin was incubated for 2 h at 60° C. in the presence of 0.6 ml of NCS tissue solubilizer (Amersham).

[1] = HL-60-RV and HL-60-R8 vs HL-60-S, day 2
[2] = HL-60-RV and HL-60-R8 vs HL-60-S, day 4

| IC50 (HL-60-RV cells; day 2) | IC50 (HL-60-RV cells; day 4) | IC50 (L1210 cells; 3 h drug + 1 h pulse-labeling, read-out: IC50, inhibition of protein synthesis in L1210 cells) | SMILES | times less potent as cytotoxic agent in MDR than in WT HL-60 cells (HL-60-RV cells; HL-60-RV and HL-60-R8 vs HL-60-S) | RFs, cell viability (IC50 of MDR cells / IC50 of WT HL-60-S) (HL-60-RV cells; [1]) | RFs, cell viability (IC50 of MDR cells / IC50 of WT HL-60-S) (HL-60-RV cells; [2]) | IC50 (HL-60-RV cells; Homo sapiens, 96 h) | times DAU inhibits protein synthesis more effectively than TT2 (L1210 cells; L1210) | reduction of the peak of maximal DNA cleavage relative to HL-60-S cells (HL-60-R8 cells) | DNA cleavage, % above control level (HL-60-S cells; 1.6 μM, control 15% DNA fragmentation) | DNA cleavage, % above control level (HL-60-S cells; 4 μM) | DNA cleavage, % below control level (HL-60-S cells; 10 μM) | DNA cleavage, % below control level (HL-60-S cells; 25 μM) | DNA cleavage, % above control level (submaximal) (HL-60-S cells; 0.04-0.64 μM DAU) | DNA cleavage, % above control level (HL-60-S cells; 10 μM) | times greater TT2 than DAU concentrations needed for more than 50% of DNA cleavage (HL-60-S cells; HL-60-S) |
| --- | --- | --- | --- | --- | --- | --- | --- | --- | --- | --- | --- | --- | --- | --- | --- | --- |
|  |  |  | COc1cccc2c1C(=O)c1c(O)c3c(c(O)c1C2=O)C[C@@](O)(C(C)=O)C[C@@H]3O[C@H]1C[C@H](N)[C@H](O)[C@H](C)O1 [DAU, daunomycin, reference compound] | about 28 times | 23.8-31.3 | 25.3-30.0 | 0.45 µM | ~3 times | 60% | 67% | 18% | 11% | 14% | 11-58% |  |  |
| 1.1 µM | 0.34 µM | 6 µM and ~6 µM | COC1=CC(=O)C2=C(C1=O)C1C3=C(C(=O)C=CC3=O)C2c2ccccc21 (stereo not drawn) [TT2, 2-Methoxy-9,10-dihydro-9,10-[1′,2′]benzenoanthracene-1,4,5,8-tetraone] |  | 0.9-1.2 | 1.5 |  |  | 35% |  | 37% |  | 11% |  | 14% | at least 2.5 times |

From patent US6828450B2, “Triptycene analogs” (Kansas State University Research Foundation, priority 2000, dated 2004)
